Data from US20040266784A1, “Calcium channel inhibitors comprising benzhydril spaced from piperazine” (priority 1998, published 2004).
Read-outs that look alike come from different tables or passages of the source.

Experiments:
[1] = molecular target: T1, human α1G subunits (T-type channels) (Homo sapiens, UniProt O43497); assay: Block of α1G T-type channels, patch clamp in HEK cell lines; assay type: cell-based
T1 construct: expressed in transfected cells
Description: Standard patch-clamp techniques were employed to identify blockers of T-type currents. Briefly, previously described HEK cell lines stably expressing human α1G subunits were used for all the recordings (passage #: 4-20, 37° C., 5% CO2). To obtain T-type currents, plastic dishes containing semi-confluent cells were positioned on the stage of a ZEISS AXIOVERT S100 microscope after replacing the culture medium with external solution (see below). Whole-cell patches were obtained using pipettes (borosilicate glass with filament, O.D.: 1.5 mm, I.D.: 0.86 mm, 10 cm length), fabricated on a SUTTER P-97 puller with resistance values of ˜5 MΩ (see below for internal medium).
Test compounds were dissolved in external solution, 0.1-0.01% DMSO. After ˜10 min rest, they were applied by gravity close to the cell using a WPI microfil tubing. The “non-inactivating” pre-pulse was used to examine the resting block of a compound. The “inactivating” protocol was employed to study voltage-dependent block. However, the initial data were obtained using the non-inactivating protocol.

[2] = molecular target: T2, P/Q-type channels (α1A+α2δ+β1b cDNA subunits) (Rattus norvegicus, UniProt P54282); assay: Whole cell patch clamp, P/Q-type calcium channel block in HEK 293 cells; assay type: cell-based; conditions: Tested at 0.1 Hz, 5 mM Ba2+
T2 construct: expressed in transfected cells
Description: (§1) Antagonist activity was measured using whole cell patch recordings on human embryonic kidney cells either stably or transiently expressing rat N-type channels (α1B+[…]+β1b subunits) with 5 mM barium as a charge carrier. Alternatively, cells either stably or transiently expressing rat L-type channels (α1C+α2δ+β1b cDNA subunits) and P/Q-type channels (α1A+α2δ+β1b cDNA subunits)
(§2) After an incubation period of from 24 to 72 hrs the culture medium was removed and replaced with external recording solution (see below). Whole cell patch clamp experiments were performed using an Axopatch 200B amplifier (Axon Instruments, Burlingame, Calif.) linked to an IBM compatible personal computer equipped with pCLAMP software. […] Current data shown were elicited by a train of 100 ms test pulses at 0.066 Hz from −100 mV and/or −80 mV to various potentials (min. −20 mV, max. +30 mV). Drugs were perfused directly into the vicinity of the cells using a microperfusion system.
(§3) Normalized dose-response curves were fit (Sigmaplot 4.0, SPSS Inc., Chicago, Ill.) by the Hill equation to determine IC50 values. […]
(§4) Whole cell patch clamp experiments were performed using an Axopatch 200B amplifier (Axon Instruments, Burlingame, Calif.) linked to a personal computer equipped with pCLAMP software. […] Data were analyzed using Clampfit (Axon Instruments) and SigmaPlot 4.0 (Jandel Scientific).

[3] = molecular target: T3, rat L-type channels (α1C+α2δ+β1b cDNA subunits) (Rattus norvegicus, UniProt P22002); assay: Whole cell patch clamp, L-type calcium channel block in HEK 293 cells; assay type: cell-based; conditions: Tested at 0.1 Hz, 5 mM Ba2+
T3 construct: expressed in transfected cells
Description: as §1, §2, §3, §4

[4] = molecular target: T4, rat N-type channels (α1B+α2δ+β1b subunits) (Rattus norvegicus, UniProt Q02294); assay: Whole cell patch clamp, N-type calcium channel block in HEK 293 cells; assay type: cell-based; conditions: Tested at 0.1 Hz, 5 mM Ba2+
T4 construct: expressed in transfected cells

[5] = molecular target: T4, rat N-type channels (α1B+α2δ+β1b subunits); assay: as above; assay type: cell-based; conditions: for specificity for N-type channels as compared to L and P/Q-type: FIGS. 2, 3 and 4
Description: as §1
HEK 293 cells were transfected by a standard calcium-phosphate-DNA coprecipitation method using the rat α1B+β1b+α2δ N-type calcium channel subunits in a vertebrate expression vector (for example, see Current Protocols in Molecular Biology).
as §2
Normalized dose-response curves were fit (Sigmaplot 4.0, SPSS Inc., Chicago, Ill.) by the Hill equation to determine IC50 values. Steady-state inactivation curves were plotted as the normalized test pulse amplitude following 5 s inactivating prepulses at +10 mV increments.
Alternatively, N-type calcium channels (α1B+α2δ+β1b cDNA subunits), L-type channels (α1C+α2δ+β1b cDNA subunits) and P/Q-type channels (α1A+α2δ+β1b cDNA subunits) were transiently expressed in HEK 293 cells. Briefly, cells were cultured in Dulbecco's modified eagle medium (DMEM) supplemented with 10% fetal bovine serum, 200 U/ml penicillin and 0.2 mg/ml streptomycin at 37° C. with 5% CO2. […] At 12 hours the medium was replaced and the cells transiently transfected using a standard calcium phosphate protocol and the appropriate calcium channel cDNAs. Fresh DMEM was supplied and the cells transferred to 28° C./5% CO2.
Whole cell patch clamp experiments were performed using an Axopatch 200B amplifier (Axon Instruments, Burlingame, Calif.) linked to a personal computer equipped with pCLAMP software. […] Currents were typically elicited from a holding potential of −80 mV to +10 mV using Clampex software (Axon Instruments). […] The compounds were then applied during the low frequency pulse trains for two to three minutes to assess tonic block, and subsequently the pulse frequency was increased to 0.2 Hz to assess frequency dependent block. Data were analyzed using Clampfit (Axon Instruments) and SigmaPlot 4.0 (Jandel Scientific).

rat formalin model = assay: Formalin-induced pain model; assay type: in vivo; conditions: 30 mg/kg IP, saline control=100%
Description: The effects of intrathecally delivered compounds of the invention on the rat formalin model were measured. The compounds were reconstituted to stock solutions of approximately 10 mg/ml in propylene glycol.
The following study groups were used, with test compound, vehicle control (propylene glycol) and saline delivered intraperitoneally (IP):
Prior to initiation of drug delivery baseline behavioral and testing data were taken.
On the morning of testing, a small metal band (0.5 g) was loosely placed around the right hind paw. The rat was placed in a cylindrical Plexiglas chamber for adaptation a minimum of 30 minutes. Test compound or vehicle control was administered 10 minutes prior to formalin injection (50 μl of 5% formalin) into the dorsal surface of the right hindpaw of the rat. The animal was then placed into the chamber of the automated formalin apparatus where movement of the formalin injected paw was monitored and the number of paw flinches tallied by minute over the next 60 minutes.

[6] = 80 mV, read-out: Block of α1G T-type Channels IC50, 80 mV
[7] = 100 mV, non-inactivating protocol, read-out: Block of α1G T-type Channels IC50, 100 mV
[8] = 0.067 Hz, read-out: IC50 for N-type Calcium Channel Block (0.067 Hz)
[9] = 0.2 Hz, read-out: IC50 for N-type Calcium Channel Block (0.2 Hz)

T4 sequence (Q02294 whole entry): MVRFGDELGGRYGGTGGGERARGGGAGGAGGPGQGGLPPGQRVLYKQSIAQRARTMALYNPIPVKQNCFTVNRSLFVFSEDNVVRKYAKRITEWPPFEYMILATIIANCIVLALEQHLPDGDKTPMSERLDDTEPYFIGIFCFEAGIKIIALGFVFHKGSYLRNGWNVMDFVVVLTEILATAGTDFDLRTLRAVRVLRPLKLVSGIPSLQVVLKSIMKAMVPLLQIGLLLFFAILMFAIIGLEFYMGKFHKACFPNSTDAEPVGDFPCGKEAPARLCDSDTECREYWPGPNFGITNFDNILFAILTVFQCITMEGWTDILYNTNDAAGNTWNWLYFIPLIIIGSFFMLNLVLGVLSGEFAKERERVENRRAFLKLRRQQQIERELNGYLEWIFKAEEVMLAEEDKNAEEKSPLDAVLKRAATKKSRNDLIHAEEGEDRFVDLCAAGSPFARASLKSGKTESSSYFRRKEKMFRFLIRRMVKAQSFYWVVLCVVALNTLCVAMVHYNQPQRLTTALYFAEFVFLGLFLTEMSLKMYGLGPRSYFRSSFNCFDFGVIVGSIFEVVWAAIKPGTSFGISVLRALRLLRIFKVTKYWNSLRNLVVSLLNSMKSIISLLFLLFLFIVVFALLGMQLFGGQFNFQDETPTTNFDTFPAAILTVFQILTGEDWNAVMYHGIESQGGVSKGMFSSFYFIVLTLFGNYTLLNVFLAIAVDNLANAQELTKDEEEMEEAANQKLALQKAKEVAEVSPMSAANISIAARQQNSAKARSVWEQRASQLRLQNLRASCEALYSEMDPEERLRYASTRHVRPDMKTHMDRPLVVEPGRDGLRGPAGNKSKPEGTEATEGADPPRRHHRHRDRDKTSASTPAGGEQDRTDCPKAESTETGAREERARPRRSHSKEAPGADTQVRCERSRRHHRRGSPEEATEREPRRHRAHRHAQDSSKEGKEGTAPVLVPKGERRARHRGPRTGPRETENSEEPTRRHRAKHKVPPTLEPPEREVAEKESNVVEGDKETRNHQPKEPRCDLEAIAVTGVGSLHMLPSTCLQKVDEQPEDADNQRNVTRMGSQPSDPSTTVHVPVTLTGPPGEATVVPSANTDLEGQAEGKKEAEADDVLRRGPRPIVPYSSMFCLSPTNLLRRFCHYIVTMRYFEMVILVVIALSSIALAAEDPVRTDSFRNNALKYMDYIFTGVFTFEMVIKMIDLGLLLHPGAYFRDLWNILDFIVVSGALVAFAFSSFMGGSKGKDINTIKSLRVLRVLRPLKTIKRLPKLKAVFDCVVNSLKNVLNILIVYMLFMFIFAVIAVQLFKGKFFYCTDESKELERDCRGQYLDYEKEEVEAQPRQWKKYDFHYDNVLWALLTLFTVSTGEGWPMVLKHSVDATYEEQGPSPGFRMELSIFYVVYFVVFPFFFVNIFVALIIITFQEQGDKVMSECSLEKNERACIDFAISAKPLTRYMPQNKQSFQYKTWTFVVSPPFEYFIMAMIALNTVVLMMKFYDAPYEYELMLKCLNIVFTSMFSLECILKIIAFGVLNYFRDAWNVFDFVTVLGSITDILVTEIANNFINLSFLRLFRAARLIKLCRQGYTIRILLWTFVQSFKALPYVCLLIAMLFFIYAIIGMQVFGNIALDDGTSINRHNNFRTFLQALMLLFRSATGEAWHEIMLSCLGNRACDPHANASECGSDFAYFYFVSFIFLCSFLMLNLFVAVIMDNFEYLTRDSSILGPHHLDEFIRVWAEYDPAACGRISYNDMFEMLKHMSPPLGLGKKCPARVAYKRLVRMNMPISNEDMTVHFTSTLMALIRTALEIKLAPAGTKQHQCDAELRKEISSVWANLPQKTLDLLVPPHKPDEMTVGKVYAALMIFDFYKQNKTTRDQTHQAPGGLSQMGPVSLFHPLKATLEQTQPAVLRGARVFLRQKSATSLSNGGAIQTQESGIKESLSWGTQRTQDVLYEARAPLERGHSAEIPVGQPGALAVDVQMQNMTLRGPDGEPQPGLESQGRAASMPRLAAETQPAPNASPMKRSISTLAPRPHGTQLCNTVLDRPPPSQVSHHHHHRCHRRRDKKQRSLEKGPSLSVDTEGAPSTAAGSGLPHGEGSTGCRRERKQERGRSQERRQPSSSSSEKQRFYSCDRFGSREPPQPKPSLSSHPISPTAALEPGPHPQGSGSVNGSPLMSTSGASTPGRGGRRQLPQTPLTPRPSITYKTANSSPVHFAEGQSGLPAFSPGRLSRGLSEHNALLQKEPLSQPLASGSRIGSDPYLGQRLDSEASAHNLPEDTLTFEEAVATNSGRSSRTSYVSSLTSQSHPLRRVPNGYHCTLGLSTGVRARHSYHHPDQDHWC
T4 sequence (P54290 25-944 partner limits assumed): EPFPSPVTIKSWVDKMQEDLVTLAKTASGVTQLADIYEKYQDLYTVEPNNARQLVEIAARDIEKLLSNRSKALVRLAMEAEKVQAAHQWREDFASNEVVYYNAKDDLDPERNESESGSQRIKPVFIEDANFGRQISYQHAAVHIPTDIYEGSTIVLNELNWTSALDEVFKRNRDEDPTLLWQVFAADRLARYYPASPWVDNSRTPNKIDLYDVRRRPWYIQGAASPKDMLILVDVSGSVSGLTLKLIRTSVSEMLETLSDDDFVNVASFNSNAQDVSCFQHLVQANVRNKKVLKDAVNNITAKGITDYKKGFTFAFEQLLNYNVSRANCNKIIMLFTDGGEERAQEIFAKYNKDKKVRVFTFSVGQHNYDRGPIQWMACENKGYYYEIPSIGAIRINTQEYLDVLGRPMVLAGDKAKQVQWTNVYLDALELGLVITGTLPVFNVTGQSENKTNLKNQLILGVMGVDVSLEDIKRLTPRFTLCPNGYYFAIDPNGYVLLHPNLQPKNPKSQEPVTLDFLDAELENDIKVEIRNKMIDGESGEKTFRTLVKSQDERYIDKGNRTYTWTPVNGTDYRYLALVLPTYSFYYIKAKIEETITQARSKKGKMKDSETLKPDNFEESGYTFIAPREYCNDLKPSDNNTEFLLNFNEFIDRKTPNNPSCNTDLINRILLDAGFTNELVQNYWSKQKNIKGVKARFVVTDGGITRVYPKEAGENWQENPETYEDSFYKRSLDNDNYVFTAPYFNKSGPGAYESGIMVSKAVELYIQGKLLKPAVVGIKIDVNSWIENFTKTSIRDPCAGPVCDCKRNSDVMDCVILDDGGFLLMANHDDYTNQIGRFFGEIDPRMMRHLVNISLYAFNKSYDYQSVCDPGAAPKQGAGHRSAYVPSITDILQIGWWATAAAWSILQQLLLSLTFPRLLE
T4 sequence (P54290 945-1091 partner limits assumed): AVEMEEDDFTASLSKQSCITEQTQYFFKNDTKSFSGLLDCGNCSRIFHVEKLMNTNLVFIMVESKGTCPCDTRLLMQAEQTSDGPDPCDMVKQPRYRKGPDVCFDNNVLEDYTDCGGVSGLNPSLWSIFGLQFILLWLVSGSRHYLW
T4 sequence (P54283 whole entry partner): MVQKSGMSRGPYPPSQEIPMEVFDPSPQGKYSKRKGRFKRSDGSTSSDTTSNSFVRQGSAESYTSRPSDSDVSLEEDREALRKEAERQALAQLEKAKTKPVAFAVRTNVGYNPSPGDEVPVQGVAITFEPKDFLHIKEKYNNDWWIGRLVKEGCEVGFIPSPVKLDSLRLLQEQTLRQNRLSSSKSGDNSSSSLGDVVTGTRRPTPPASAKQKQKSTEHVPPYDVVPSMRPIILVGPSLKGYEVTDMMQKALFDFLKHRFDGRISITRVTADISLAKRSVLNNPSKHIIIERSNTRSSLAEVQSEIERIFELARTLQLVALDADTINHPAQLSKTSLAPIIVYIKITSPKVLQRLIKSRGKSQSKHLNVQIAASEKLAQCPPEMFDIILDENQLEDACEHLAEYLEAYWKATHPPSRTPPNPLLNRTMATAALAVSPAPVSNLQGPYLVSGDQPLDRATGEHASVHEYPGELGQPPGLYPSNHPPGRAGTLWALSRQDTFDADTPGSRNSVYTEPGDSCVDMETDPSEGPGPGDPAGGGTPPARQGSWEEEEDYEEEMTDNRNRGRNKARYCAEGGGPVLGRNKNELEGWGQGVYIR

SMILES	IC50 [5, 8] [nM]	IC50 [5, 9] [nM]	also measured
CCOC(=O)C1CN(Cc2cc(OC)c(OC)c(OC)c2)CCN1CCCCCC(c1ccc(F)cc1)c1ccc(F)cc1 (stereo not shown) [Compound P36, 1-[6,6-bis-(4-fluoro-phenyl)-hexyl]-4-(3,4,5,-trimethoxy-benzyl)-piperazine-2-carboxylic acid ethyl ester]	240	130	IC50 [1, 6]: 47 nM; IC50 [1, 7]: 202 nM; IC50 [2]: 920 nM; IC50 [3]: > 100000 nM; IC50 [4]: 136 nM; specificity for N-type channels as compared to L and P/Q-type [5]: selectively block N-type channels
COc1c(C(C)(C)C)cc(CN2CCN(CCCCCC(c3ccc(F)cc3)c3ccc(F)cc3)C(=O)C2)cc1C(C)(C)C [Compound P56]	78	59	IC50 [1, 6]: 92 nM; IC50 [1, 7]: 95 nM
Fc1ccc(C(CCCCCN2CCN(c3nc4ccccc4s3)CC2)c2ccc(F)cc2)cc1 [Compound P32]	345	245	–
Fc1ccc(C(CCCCCN2CCN(CCOc3ccc4c(c3)OCO4)CC2)c2ccc(F)cc2)cc1 [Compound P65]	705	517	–
CC(C)(C)c1cc(C(=O)N2CCN(C(=O)CCCCC(c3ccc(F)cc3)c3ccc(F)cc3)CC2)cc(C(C)(C)C)c1O [Compound P28]	379	217	–
O=C1CN(C(=O)CCCCC(c2ccc(F)cc2)c2ccc(F)cc2)CCN1CCOc1ccc(F)cc1 [Compound P53]	200	980	–
COc1cc(CN2CCN(CCCCCCCCC(c3ccc(F)cc3)c3ccc(F)cc3)CC2)cc(OC)c1OC [Compound P40]	286	214	–
COc1ccc(CN2CCN(CCCCCC(c3ccc(F)cc3)c3ccc(F)cc3)CC2)cc1OC [Compound P63]	319	258	–
COc1cc(CN2CCN(CCCCCC(c3ccc(F)cc3)c3ccc(F)cc3)[C@@H](C(=O)O)C2)cc(OC)c1OC [Compound P61]	610	520	–
CCOC(=O)C1CN(CCCCCC(c2ccc(F)cc2)c2ccc(F)cc2)CCN1Cc1cc(OC)c(OC)c(OC)c1 (stereo not shown) [Compound P62]	680	410	–
CC(C)(C)c1cc(C(=O)N2CCN(C(=O)CCCCC(c3ccc(F)cc3)c3ccc(F)cc3)C(=O)C2)cc(C(C)(C)C)c1O [Compound P57]	600	400	–

Second part, led by results:

IC50 [5, 8] [nM]	IC50 [5, 9] [nM]	SMILES	also measured
386	192	O=C(NCC(=O)N1CCN(CCCCCC(c2ccc(F)cc2)c2ccc(F)cc2)CC1)c1ccc(Cl)cc1 [Compound P83]	IC50 [1, 6]: 59 nM; IC50 [1, 7]: 173 nM
511	295	Cc1ccc(C(=O)NCC(=O)N2CCN(CCCCCC(c3ccc(F)cc3)c3ccc(F)cc3)CC2)cc1 [Compound P84]	IC50 [1, 6]: 149 nM; IC50 [1, 7]: 370 nM
60	13	COc1c(C(C)(C)C)cc(C(=O)N2CCN(C(=O)CCCCC(c3ccc(F)cc3)c3ccc(F)cc3)C[C@@H]2C)cc1C(C)(C)C [Compound P104]	IC50 [1, 6]: 270 nM; IC50 [1, 7]: 579 nM; IC50 [2]: 1660 nM; IC50 [3]: 144000 nM; IC50 [4]: 61 nM; specificity for N-type channels as compared to L and P/Q-type [5]: selectively block N-type channels; Maximum Possible Effect±SEM, Phase I (rat formalin model; Phase I): 79 ± 9%; Maximum Possible Effect±SEM, Phase II (rat formalin model; Phase II): 61 ± 9%; Maximum Possible Effect±SEM, Phase IIA (rat formalin model; Phase IIA): 50 ± 12%
64	30	COc1cc(CNCCN2CCN(CCCCCC(c3ccc(F)cc3)c3ccc(F)cc3)CC2)cc(OC)c1OC [Compound P78]	–
870	510	O=C(CCCCC(c1ccc(F)cc1)c1ccc(F)cc1)N1CCN(C(=O)c2cc(C(F)(F)F)cc(C(F)(F)F)c2)CC1 [Compound P71]	–
680	514	Oc1c(Br)cc(CN2CCN(CCCCCC(c3ccc(F)cc3)c3ccc(F)cc3)CC2)cc1Br [Compound P76]	–
277	203	COc1cc(CN2CCN(CCCCCC(c3ccc(F)cc3)c3ccc(F)cc3)CC2)cc(OC)c1O [Compound P101]	–
1050	928	Cc1cc(OC[C@@H](O)CN2CCN(CCCCCC(c3ccc(F)cc3)c3ccc(F)cc3)CC2)c(C)c(C)c1N [Compound P67]	–
439	377	Fc1ccc(C(CCCCCN2CCN(Cc3ccc(Br)cc3)CC2)c2ccc(F)cc2)cc1 [Compound P73]	–
